The assay addresses JAK2 (Homo sapiens (Human), UniProt O60674). Description: Jak biochemical HTRF assay, JAK2. The settings on record: recombinant purified GST-tagged catalytic domain; HTRF format; [ATP] 8.5 μM. The source says: Jak Biochemical HTRF Assay Protocol
Subsequent reagent additions employed an Agilent Bravo.
Background: TR-FRET usually uses a lanthanide donor and a delayed reading to cut background.

Chain of JAK2 (O60674 849-1124): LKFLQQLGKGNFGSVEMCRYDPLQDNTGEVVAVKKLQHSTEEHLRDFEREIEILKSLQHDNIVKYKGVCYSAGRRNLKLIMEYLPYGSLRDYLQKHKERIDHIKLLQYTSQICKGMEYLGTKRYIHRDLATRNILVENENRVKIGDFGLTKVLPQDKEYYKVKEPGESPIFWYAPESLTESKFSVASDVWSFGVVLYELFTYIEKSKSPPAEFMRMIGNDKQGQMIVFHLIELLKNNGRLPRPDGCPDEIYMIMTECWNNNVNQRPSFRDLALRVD

As usually defined, the IC50 is the concentration that inhibits the measured activity by half. With `CC(C)(C)OC(=O)N1CCC(n2cc(C(N)=O)c(Nc3ccc(F)cc3)n2)[C@H](C#N)C1` (mixture of isomers) [Example 2-2, (3R,4S and 3S,4R)-tert-butyl 4-(4-carbamoyl-3-((4-fluorophenyl)amino)-1H-pyrazol-1-yl)-3-cyanopiperidine-1-carboxylate], the concentration for half-maximal inhibition (IC50) is 0.841 µM.

As to `CC(C)(C)OC(=O)N1CCC(n2cc(C(N)=O)c(Nc3ccc(F)cc3)n2)[C@@H](C#N)C1` (mixture of isomers) [Example 2-3, (3S,4S and 3R,4R)-tert-butyl 4-(4-carbamoyl-3-((4-fluorophenyl)amino)-1H-pyrazol-1-yl)-3-cyanopiperidine-1-carboxylate], the IC50 was found to be 0.367 µM.

In the case of `CC(C)COC(=O)N1CC[C@@H](n2cc(C(N)=O)c(Nc3ccc(F)cc3)n2)[C@H](C#N)C1` (racemic) [Example 5-10, 2-methylpropyl (3R,4R and 3S,4S)-4-{4-carbamoyl-3-[(4-fluorophenyl)amino]-1H-pyrazol-1-yl}-3-cyanopiperidine-1-carboxylate], the half-inhibitory concentration (IC50) is 0.755 µM.

Consider `N#C[C@@H]1CN(C(=O)OCc2ccccc2)CC[C@H]1n1cc(C(N)=O)c(Nc2ccc(F)cc2)n1` (racemic) [Example 5-12, benzyl (3R,4R and 3S,4S)-4-{4-carbamoyl-3-[(4-fluorophenyl)amino]-1H-pyrazol-1-yl}-3-cyanopiperidine-1-carboxylate], for which the IC50 stood at 0.369 µM.

`CN1CCN(CCOC(=O)N2CC[C@@H](n3cc(C(N)=O)c(Nc4ccc(F)cc4)n3)[C@H](C#N)C2)CC1` (racemic) [Example 5-24, 2-(4-methylpiperazin-1-yl)ethyl (3R,4R and 3S,4S)-4-{4-carbamoyl-3-[(4-fluorophenyl)amino]-1H-pyrazol-1-yl}-3-cyanopiperidine-1-carboxylate]: the IC50 is 1.07 µM.

Regarding `CC1(COC(=O)N2CC[C@@H](n3cc(C(N)=O)c(Nc4ccc(F)cc4)n3)[C@H](C#N)C2)COC1` (racemic) [Example 5-33, (3-methyloxetan-3-yl)methyl (3R,4R and 3S,4S)-4-{4-carbamoyl-3-[(4-fluorophenyl)amino]-1H-pyrazol-1-yl}-3-cyanopiperidine-1-carboxylate], the 50% inhibitory concentration (IC50) turned out to be 0.413 µM.

`C#CCCOC(=O)N1CC[C@@H](n2cc(C(N)=O)c(Nc3ccc(F)cc3)n2)[C@H](C#N)C1` (racemic) [Example 5-34, but-3-yn-1-yl (3R,4R and 3S,4S)-4-{4-carbamoyl-3-[(4-fluorophenyl)amino]-1H-pyrazol-1-yl}-3-cyanopiperidine-1-carboxylate]: the IC50 is 0.154 µM.

For the compound `C#CCCOC(=O)N1CC[C@H](n2cc(C(N)=O)c(Nc3ccc(F)cc3)n2)[C@H](C#N)C1` (racemic) [Example 5-40, but-3-yn-1-yl (3R,4S and 3S,4R)-4-{4-carbamoyl-3-[(4-fluorophenyl)amino]-1H-pyrazol-1-yl}-3-cyanopiperidine-1-carboxylate], the IC50 amounted to 1.39 µM.

As for `CC1(COC(=O)N2CC[C@H](n3cc(C(N)=O)c(Nc4ccc(F)cc4)n3)[C@H](C#N)C2)COC1` (racemic) [Example 5-45, (3-methyloxetan-3-yl)methyl (3R,4S and 3S,4R)-4-{4-carbamoyl-3-[(4-fluorophenyl)amino]-1H-pyrazol-1-yl}-3-cyanopiperidine-1-carboxylate], the concentration for half-maximal inhibition (IC50) is greater than 1.5 µM.

For the compound `N#C[C@@H]1CN(C(=O)OCc2ccccc2)CC[C@@H]1n1cc(C(N)=O)c(Nc2ccc(F)cc2)n1` (racemic) [Example 5-52, benzyl (3R,4S and 3S,4R)-4-{4-carbamoyl-3-[(4-fluorophenyl)amino]-1H-pyrazol-1-yl}-3-cyanopiperidine-1-carboxylate], the concentration for half-maximal inhibition (IC50) was greater than 1.5 µM.

For `CC(C)COC(=O)N1CC[C@H](n2cc(C(N)=O)c(Nc3ccc(F)cc3)n2)[C@H](C#N)C1` (racemic) [Example 5-56, 2-methylpropyl (3R,4S and 3S,4R)-4-{4-carbamoyl-3-[(4-fluorophenyl)amino]-1H-pyrazol-1-yl}-3-cyanopiperidine-1-carboxylate], the half-inhibitory concentration (IC50) was greater than 1.5 µM.

Turning to `N#C[C@@H]1CN(C(=O)OC2CCCCC2)CC[C@@H]1n1cc(C(N)=O)c(Nc2ccc(F)cc2)n1` (racemic) [Example 5-61, cyclohexyl (3R,4S and 3S,4R)-4-{4-carbamoyl-3-[(4-fluorophenyl)amino]-1H-pyrazol-1-yl}-3-cyanopiperidine-1-carboxylate], the 50% inhibitory concentration (IC50) was greater than 1.5 µM.

On to `CC(C)(C#N)COC(=O)N1CC[C@@H](C#N)C(n2cc(C(N)=O)c(Nc3ccc(F)cc3)n2)C1` (mixture of isomers) [Example 5-69, 2-Cyano-2-methylpropyl (3S,4R and 3R,4S)-3-{4-carbamoyl-3-[(4-fluorophenyl)amino]-1H-pyrazol-1-yl}-4-cyanopiperidine-1-carboxylate], for which the IC50 turned out to be 0.041 µM.

For the compound `N#C[C@@H]1CCN(C(=O)OCCF)CC1n1cc(C(N)=O)c(Nc2ccc(F)cc2)n1` (mixture of isomers) [Example 5-79, 2-fluoroethyl (3S,4R and 3R,4S)-3-{4-carbamoyl-3-[(4-fluorophenyl)amino]-1H-pyrazol-1-yl}-4-cyanopiperidine-1-carboxylate], the IC50 came to 0.056 µM.

Turning to `COCCOC(=O)N1CC[C@@H](C#N)C(n2cc(C(N)=O)c(Nc3ccc(F)cc3)n2)C1` (mixture of isomers) [Example 5-83, 2-methoxyethyl (3S,4R and 3R,4S)-3-{4-carbamoyl-3-[(4-fluorophenyl)amino]-1H-pyrazol-1-yl}-4-cyanopiperidine-1-carboxylate], the half-inhibitory concentration (IC50) stood at 0.12 µM.

Take `CC1(COC(=O)N2CC[C@@H](C#N)C(n3cc(C(N)=O)c(Nc4ccc(F)cc4)n3)C2)COC1` (mixture of isomers) [Example 5-90, (3-methyloxetan-3-yl)methyl (3S,4R and 3R,4S)-3-{4-carbamoyl-3-[(4-fluorophenyl)amino]-1H-pyrazol-1-yl}-4-cyanopiperidine-1-carboxylate]: the IC50 is 0.096 µM.

Turning to `N#C[C@@H]1CCN(Cc2cc(F)ccn2)C[C@H]1n1cc(C(N)=O)c(Nc2ccc(F)cc2)n1` (racemic) [Example 6-7, 1-{(3S,4R and 3R,4S)-4-cyano-1-[(4-fluoropyridin-2-yl)methyl]piperidin-3-yl}-3-[(4-fluorophenyl)amino]-1H-pyrazole-4-carboxamide], the 50% inhibitory concentration (IC50) was 0.047 µM.

For the compound `N#C[C@@H]1CCN(CC2CCC2)C[C@H]1n1cc(C(N)=O)c(Nc2ccc(F)cc2)n1` (racemic) [Example 6-12, 1-[(3S,4R and 3R,4S)-4-cyano-1-(cyclobutylmethyl)piperidin-3-yl]-3-[(4-fluorophenyl)amino]-1H-pyrazole-4-carboxamide], the half-inhibitory concentration (IC50) was determined as 0.033 µM.

Take `CCn1ccnc1CN1CC[C@@H](C#N)[C@H](n2cc(C(N)=O)c(Nc3ccc(F)cc3)n2)C1` (racemic) [Example 6-19, 1-{(3S,4R and 3R,4S)-4-cyano-1-[(1-ethyl-1H-imidazol-2-yl)methyl]piperidin-3-yl}-3-[(4-fluorophenyl)amino]-1H-pyrazole-4-carboxamide]: the 50% inhibitory concentration (IC50) is 0.011 µM.

As to `N#C[C@@H]1CN(Cc2cscn2)CC[C@H]1n1cc(C(N)=O)c(Nc2ccc(F)cc2)n1` (racemic) [Example 6-27, 1-[(3R,4R and 3S,4S)-3-cyano-1-(1,3-thiazol-4-ylmethyl)piperidin-4-yl]-3-[(4-fluorophenyl)amino]-1H-pyrazole-4-carboxamide], the 50% inhibitory concentration (IC50) was 0.037 µM.

In the case of `N#C[C@@H]1CN(Cc2ncco2)CC[C@H]1n1cc(C(N)=O)c(Nc2ccc(F)cc2)n1` (racemic) [Example 6-29, 1-[(3R,4R and 3S,4S)-3-cyano-1-(1,3-oxazol-2-ylmethyl)piperidin-4-yl]-3-[(4-fluorophenyl)amino]-1H-pyrazole-4-carboxamide], the IC50 is 0.047 µM.

Consider `N#C[C@H]1CS(=O)(=O)CC1n1cc(C(N)=O)c(Nc2ccc(F)cc2)n1` (mixture of isomers) [Example 8-5, 1-((3S,4S and 3R,4R)-4-cyano-1,1-dioxidotetrahydrothiophen-3-yl)-3-((4-fluorophenyl)amino)-1H-pyrazole-4-carboxamide], for which the IC50 is 0.032 µM.

`N#C[C@@H]1CS(=O)(=O)CC1n1cc(C(N)=O)c(Nc2ccc(F)cc2)n1` (mixture of isomers) [Example 8-6, 1-((3S,4R and 3R,4S)-4-cyano-1,1-dioxidotetrahydrothiophen-3-yl)-3-((4-fluorophenyl)amino)-1H-pyrazole-4-carboxamide]: the IC50 came to 0.024 µM.

With `N#C[C@@H]1CS(=O)(=O)CC1n1cc(C(N)=O)c(Nc2ccc(S(=O)(=O)C(F)(F)F)cc2)n1` (mixture of isomers) [Example 8-7, 1-((3S,4R and 3R,4S)-4-cyano-1,1-dioxidotetrahydrothiophen-3-yl)-3-((4-((trifluoromethyl)sulfonyl)phenyl)amino)-1H-pyrazole-4-carboxamide], the IC50 was 0.015 µM.

In the case of `N#C[C@H]1CCOC[C@@H]1n1cc(C(N)=O)c(Nc2ccc(Cl)nc2)n1` (single isomer, unassigned) [Example 9-27, 3-[(6-chloropyridin-3-yl)amino]-1-[(3R,4S or 3S,4R)-4-cyanotetrahydro-2H-pyran-3-yl]-1H-pyrazole-4-carboxamide], the half-inhibitory concentration (IC50) stood at 0.134 µM.

With `N#C[C@@H]1CCOC[C@H]1n1cc(C(N)=O)c(Nc2ccc(Cl)nc2)n1` (single isomer, unassigned) [Example 9-28, 3-[(6-chloropyridin-3-yl)amino]-1-[(3S,4R or 3R,4S)-4-cyanotetrahydro-2H-pyran-3-yl]-1H-pyrazole-4-carboxamide], the IC50 is 0.004 µM.

With `N#C[C@H]1CCOC[C@@H]1n1cc(C(N)=O)c(Nc2ccc(C(F)F)nc2)n1` (single isomer, unassigned) [Example 9-32, 1-[(3R,4S or 3S,4R)-4-cyanotetrahydro-2H-pyran-3-yl]-3-{[6-(difluoromethyl)pyridin-3-yl]amino}-1H-pyrazole-4-carboxamide], the 50% inhibitory concentration (IC50) is 0.134 µM.

Consider `N#C[C@@H]1CCOC[C@H]1n1cc(C(N)=O)c(Nc2ccc(C(F)F)nc2)n1` (single isomer, unassigned) [Example 9-33, 1-[(3S,4R or 3R,4S)-4-cyanotetrahydro-2H-pyran-3-yl]-3-{[6-(difluoromethyl)pyridin-3-yl]amino}-1H-pyrazole-4-carboxamide], for which the half-inhibitory concentration (IC50) was 0.003 µM.

The values above are taken from patent publication US9394282B2, “Pyrazole carboxamides as Janus kinase inhibitors” (Merck Sharp & Dohme Corp., priority 2011, dated 2016).
